Test results published in patent US11672800B2, “Combination therapies with EHMT2 inhibitors” (Epizyme, Inc., priority 2017, dated 2023).
pIC50: −log10 of the molar value.

Tests used:
Type in all cases: cell-based
MeWo = assay: In vitro combination study of Compound 205 with a second agent, melanoma cell proliferation (CellTiter Glo, Loewe synergy); settings: combination with Compound 205; for Combinatorial effect (Loewe method) of second agent with Compound 205, MeWo: 7 days pre-treatment with Compound 205, then 7 days co-treatment, ATP content, Loewe volume >1 synergy, -1 to 1 additivity; on Combinatorial effect (Loewe method) of second agent with Compound 205, MeWo: key: SYN Synergy; ADD Additivity
Description: (§1) On day 14 plates were developed for endpoint analysis using CellTiter Glo to measure ATP content, which was used as an indicator of cell viability. DMSO concentration was kept constant throughout the assay at 0.2% v/v.
(§2) All cells were maintained and cultured at 37° C., in a humidified atmosphere and 5% CO2.
(§3) Loewe volumes greater than 1 denoted synergy and volumes below −1 denoted antagonism. A value between −1 and 1 denoted additivity.

WM-266-4 = assay: as above; settings: combination with Compound 205; for Combinatorial effect (Loewe method) of second agent with Compound 205, WM-266-4: 7 days pre-treatment with Compound 205, then 7 days co-treatment, ATP content, Loewe volume >1 synergy, -1 to 1 additivity; on Combinatorial effect (Loewe method) of second agent with Compound 205, WM-266-4: key: SYN Synergy; ADD Additivity
Description: as §1, §2, §3

SUP-T1 = assay: In vitro long term proliferation (LTP), T-ALL cell line; settings: Homo sapiens, 336 h, 14 day LTP, absolute IC50, seeding density 200000, read-out: Compound A75 IC50
Description: (§4) Exponentially growing T-cell lymphocytic leukemia (T-ALL) cells were plated, in triplicate, in 96-well plates at the appropriate cell density in a final volume of 150 μl. Cells were incubated in the presence of increasing concentrations of Compound A75. Viable cell number was determined at day 0, 4, 7, 11 and 14 days using Calcein staining and using an Accumen instrument to enumerate the number of cells. On days of cell counts, growth media and Compound A75 were replaced and cells split back to initial density. Total cell number is expressed as split-adjusted viable cells per well. For each cell line, absolute IC50 values (concentration of compound at which 50% inhibition occurs) were determined from concentration-dependence curves at 14 days using Graphpad Prism software.

CCRF-CEM = assay: as above; settings: Homo sapiens, 336 h, 14 day LTP, absolute IC50, seeding density 100000, read-out: Compound A75 IC50
Description: as §4

MOLT-16 = assay: as above; settings: Homo sapiens, 336 h, 14 day LTP, absolute IC50, seeding density 100000, read-out: Compound A75 IC50
Description: as §4

Jurkat = assay: as above; settings: Homo sapiens, 336 h, 14 day LTP, absolute IC50, seeding density 100000, read-out: Compound A75 IC50
Description: as §4

MOLT-4 = assay: as above; settings: Homo sapiens, 336 h, 14 day LTP, absolute IC50, seeding density 100000, read-out: Compound A75 IC50
Description: as §4

PEER = assay: as above; settings: Homo sapiens, 336 h, 14 day LTP, absolute IC50, seeding density 250000, read-out: Compound A75 IC50
Description: as §4

TALL-1 = assay: as above; settings: Homo sapiens, 336 h, 14 day LTP, absolute IC50, seeding density 150000, read-out: Compound A75 IC50
Description: as §4

Row | Structure (SMILES) | Combinatorial effect (Loewe method) of second agent with Compound 205, MeWo (MeWo) | Combinatorial effect (Loewe method) of second agent with Compound 205, WM-266-4 (WM-266-4) | also measured
1 | Cn1cnc2c(F)c(Nc3ccc(Br)cc3Cl)c(C(=O)NOCCO)cc21 [Selumetinib, selumetinib] | ADD | ADD | 
2 | CNC(=O)c1cc(Oc2ccc(NC(=O)Nc3ccc(Cl)c(C(F)(F)F)c3)cc2)ccn1 [Sorafenib] | ADD | SYN | 
3 | CO[C@H]1C[C@@H]2CC[C@@H](C)[C@@](O)(O2)C(=O)C(=O)N2CCCC[C@H]2C(=O)O[C@H]([C@H](C)C[C@@H]2CC[C@@H](OCCO)[C@H](OC)C2)CC(=O)[C@H](C)/C=C(\C)[C@@H](O)[C@@H](OC)C(=O)[C@H](C)C[C@H](C)/C=C/C=C/C=C/1C [Everolimus, everolimus] | SYN | SYN | Combination effect of Compound 205 and Everolimus (figure legend) (MeWo; MeWo melanoma cell line, FIG. 6): synergy; Combination effect of Compound 205 and Everolimus (figure legend) (WM-266-4; WM-266-4 melanoma cell line, FIG. 6): synergy
4 | CC(C)Nc1cc(-c2c[nH]c(C(=O)N[C@H](CO)c3cccc(Cl)c3)c2)c(Cl)cn1 [BVD-523, N-[(1S)-1-(3-chlorophenyl)-2-hydroxyethyl]-4-[5-chloro-2-(propan-2-ylamino)-pyridin-4-yl]-1H-pyrrole-2-carboxamide] | ADD | ADD | 
5 | CS(=O)(=O)N1CCN(Cc2cc3nc(-c4cccc5[nH]ncc45)nc(N4CCOCC4)c3s2)CC1 [Pictilisib, 4-[2-(1H-indazol-4-yl)-6-[(4-methylsulfonylpiperazin-1-yl)methyl]thieno[3,2-d]pyrimidin-4-yl]morpholine] | SYN | SYN | 
6 | Nc1cc(C(F)(F)F)c(-c2cc(N3CCOCC3)nc(N3CCOCC3)n2)cn1 [BKM120, 5-(2,6-dimorpholin-4-ylpyrimidin-4-yl)-4-(trifluoromethyl)pyridin-2-amine] | SYN | SYN | 
7 | CC(=O)Nc1cccc(-n2c(=O)n(C3CC3)c(=O)c3c(Nc4ccc(I)cc4F)n(C)c(=O)c(C)c32)c1 [Trametinib] | ADD | ADD | 
8 | CC(=O)c1c(C)c2cnc(Nc3ccc(N4CCNCC4)cn3)nc2n(C2CCCC2)c1=O [Palbociclib, palbociclib] | SYN | SYN | 
9 | CC(C)NC[C@@H](C(=O)N1CCN(c2ncnc3c2[C@H](C)C[C@H]3O)CC1)c1ccc(Cl)cc1 [GDC-0068, (2S)-2-(4-chlorophenyl)-1-[4-[(5R,7R)-7-hydroxy-5-methyl-6,7-dihydro-5H-cyclopenta[d]pyrimidin-4-yl]piperazin-1-yl]-3-(propan-2-ylamino)propan-1-one] | ADD | SYN | 
10 | NC1(c2ccc(-c3nc4ccn5c(=O)[nH]nc5c4cc3-c3ccccc3)cc2)CCC1 [MK-2206] | SYN | SYN | 
11 | CNC1=Nc2cc(C#CCN3CCCCC3)c(OC)cc2C12CCC2 [Compound A75] |  |  | pIC50 (SUP-T1): 4.82 to 5.30; pIC50 (CCRF-CEM): 5.30 to 6.00; pIC50 (MOLT-16): 6.00 to 7.00; pIC50 (Jurkat): 5.30 to 6.00; pIC50 (MOLT-4): 6.00 to 7.00; pIC50 (PEER): > 7.00; pIC50 (TALL-1): 4.82 to 5.30
